The text below walks through data of the OligoGym collection.

“And” between values parts separate entries of the source, which are not always exact repeats. Equal entries are not always repeated. After the bases stand the sugars from the 5' end (letter, count) and the backbone: PS all phosphorothioate, else s phosphorothioate and o phosphodiester by linkage. Methylation of C is not given here. k = constrained ethyl (cEt); d = 2'-deoxy (DNA)

In this data set the target is MALAT1. The following applies: ASO, A431, 0.005 µM.
Turning to CTTAACAGCTTATGGA (sugars k3 d10 k3, PS), the target mRNA inhibition stood at 30%.

Turning to GCCCTTCTATTGGTAT (sugars k3 d10 k3, PS), the target mRNA inhibition is -3%.

With CCAAGCACTCATATGC (sugars k3 d10 k3, PS), the target mRNA inhibition was 12%.

As for TTAAGACCATCCCAAA (sugars k3 d10 k3, PS), the target mRNA inhibition was determined as 5%.

For CTGGTTATGACTCAGA (sugars k3 d10 k3, PS), the target mRNA inhibition amounted to 1%.

For the sequence TATCTTCACCACGAAC (sugars k3 d10 k3, PS), the target mRNA inhibition was found to be 0%.

Consider CTCATACACTCACTAG (sugars k3 d10 k3, PS), for which the target mRNA inhibition was 0%.

CTTTTTAAAAGATCGC (sugars k3 d10 k3, PS): the target mRNA inhibition was found to be 31%.

On to CTGCATTTACTTGCCA (sugars k3 d10 k3, PS), for which the target mRNA inhibition amounted to 17%.

For the sequence TCGGATGCTTCACTCC (sugars k3 d10 k3, PS), the target mRNA inhibition is 37%.

As for GTAAAACATTGCCTAC (sugars k3 d10 k3, PS), the target mRNA inhibition was 24%.

With CCCTTCCCTATATAAG (sugars k3 d10 k3, PS), the target mRNA inhibition is 5%.

Consider CCCCGCCTCAGTTACA (sugars k3 d10 k3, PS), for which the target mRNA inhibition is 35%.

Turning to GGATGAAATGCCTCTG (sugars k3 d10 k3, PS), the target mRNA inhibition stood at 24%.

On to AATCATACTCCAGTCG (sugars k3 d10 k3, PS), for which the target mRNA inhibition is 35%.

Take AAACATTGCCTACCAC (sugars k3 d10 k3, PS): the target mRNA inhibition is -9%.

As to CGCTCAAATCCTGATC (sugars k3 d10 k3, PS), the target mRNA inhibition was found to be 23%.

Consider CTAGACAGACCTAAGG (sugars k3 d10 k3, PS), for which the target mRNA inhibition stood at 2%.

Turning to AAAAGTAGTTCTTCGG (sugars k3 d10 k3, PS), the target mRNA inhibition was determined as 18%.

As for ATCTAGGCCATCATAC (sugars k3 d10 k3, PS), the target mRNA inhibition was 32%.

Take ATCACCGGAATTCGAT (sugars k3 d10 k3, PS): the target mRNA inhibition was 17%.

As for ACTCGCTTTCCCTGTG (sugars k3 d10 k3, PS), the target mRNA inhibition came to 35%.

Regarding TTTAAACGGGTCATCA (sugars k3 d10 k3, PS), the target mRNA inhibition was 10%.

Regarding CTCTTCTGATAACGAA (sugars k3 d10 k3, PS), the target mRNA inhibition was 23%.

Consider CAGTAGGTATAGTTTA (sugars k3 d10 k3, PS), for which the target mRNA inhibition is -17%.

For ATCCTGAAATCCCCTA (sugars k3 d10 k3, PS), the target mRNA inhibition was found to be 8%.

As for AACTTATCTGTTAACA (sugars k3 d10 k3, PS), the target mRNA inhibition stood at 30%.

Turning to GCCGCCTGCTACCTTC (sugars k3 d10 k3, PS), the target mRNA inhibition amounted to 12%.

For the sequence AAATTACACCAGTCCT (sugars k3 d10 k3, PS), the target mRNA inhibition came to 45%.

As for GAATCCCCCCCAAGAT (sugars k3 d10 k3, PS), the target mRNA inhibition is -15%.

On to AAATACGACTGCTTAA (sugars k3 d10 k3, PS), for which the target mRNA inhibition was determined as 22%.

Regarding CTCATTTATTTCGGCT (sugars k3 d10 k3, PS), the target mRNA inhibition was 78% and 93%.

As to CACAAATACGACTGCT (sugars k3 d10 k3, PS), the target mRNA inhibition stood at 24%.

Consider TCTTAACAGCTTATGG (sugars k3 d10 k3, PS), for which the target mRNA inhibition worked out at 31%.

Consider CCAAAAGCTCTATACT (sugars k3 d10 k3, PS), for which the target mRNA inhibition turned out to be 12%.

As for TGCAAGTTAAACTTAT (sugars k3 d10 k3, PS), the target mRNA inhibition was 25%.

Turning to ACGCAACTGAGCCCCA (sugars k3 d10 k3, PS), the target mRNA inhibition is -44%.

For CCGAAGACACAGAGAC (sugars k3 d10 k3, PS), the target mRNA inhibition came to 2%.

For TGTTAACAATTTGCAG (sugars k3 d10 k3, PS), the target mRNA inhibition was 20%.

Turning to CAAGGATGTATATAGT (sugars k3 d10 k3, PS), the target mRNA inhibition is 0%.

As for TCCCTTTACACCTCAG (sugars k3 d10 k3, PS), the target mRNA inhibition worked out at 25%.

Turning to TAAATTACACCAGTCC (sugars k3 d10 k3, PS), the target mRNA inhibition was 44%.

In the case of ATGTACTCAGCTTCAA (sugars k3 d10 k3, PS), the target mRNA inhibition came out at 44%.

With CCTCATGCTACTCTTC (sugars k3 d10 k3, PS), the target mRNA inhibition is 54%.

For ACACCTTGAGTCATTT (sugars k3 d10 k3, PS), the target mRNA inhibition is 50%.

CTCACATGCCAGTTAC (sugars k3 d10 k3, PS): the target mRNA inhibition was 51%.

Consider CTGGATAAGTATTATA (sugars k3 d10 k3, PS), for which the target mRNA inhibition is 28%.

For TCCTTCGGATGCTTCA (sugars k3 d10 k3, PS), the target mRNA inhibition is 56%.

For the sequence TCTAAGATTGTAAGCA (sugars k3 d10 k3, PS), the target mRNA inhibition turned out to be 53%.

For TCCAGTCTACAAGTTA (sugars k3 d10 k3, PS), the target mRNA inhibition worked out at 31%.

On to CGGTACACTCCTTCTC (sugars k3 d10 k3, PS), for which the target mRNA inhibition was found to be 40%.

As for GATGCTAGCTTGGCCA (sugars k3 d10 k3, PS), the target mRNA inhibition is -2%.

Take TTGGTTACCAATAATT (sugars k3 d10 k3, PS): the target mRNA inhibition is 24%.

Regarding CTTACTTGATAATACA (sugars k3 d10 k3, PS), the target mRNA inhibition amounted to 35%.

With GCCCACAGGAACAAGT (sugars k3 d10 k3, PS), the target mRNA inhibition was determined as 25%.

Turning to ATCGCCTTCAAATTAT (sugars k3 d10 k3, PS), the target mRNA inhibition was 60% and 76%.

Consider CACTGTCAATTTATAG (sugars k3 d10 k3, PS), for which the target mRNA inhibition is 19%.

Take GCCCCCCACGGCCCGC (sugars k3 d10 k3, PS): the target mRNA inhibition turned out to be 10%.

AACGGGTCATCAAACA (sugars k3 d10 k3, PS): the target mRNA inhibition was -25%.

Regarding CTGGCATGAGTTTATC (sugars k3 d10 k3, PS), the target mRNA inhibition worked out at 27%.

With AAGTGCTCACAAGGCA (sugars k3 d10 k3, PS), the target mRNA inhibition was -16%.

As for AATACTTCATTACCCC (sugars k3 d10 k3, PS), the target mRNA inhibition is 45%.

For CTAACCCAGTTTGTCA (sugars k3 d10 k3, PS), the target mRNA inhibition was 35%.

TACAGAAGTCTCGGGC (sugars k3 d10 k3, PS): the target mRNA inhibition came out at 28%.

As to ACTAGCACCTGCAGAG (sugars k3 d10 k3, PS), the target mRNA inhibition came out at 23%.

Turning to TATATAAGGTCAATAG (sugars k3 d10 k3, PS), the target mRNA inhibition was determined as 5%.

Turning to TATAGACCCCTGACTT (sugars k3 d10 k3, PS), the target mRNA inhibition was found to be 42%.

Turning to TTGCCCCAACACTGAA (sugars k3 d10 k3, PS), the target mRNA inhibition was determined as 7%.

Consider AGACCAACCCCCAGTT (sugars k3 d10 k3, PS), for which the target mRNA inhibition was determined as 0%.

As to CACAGCGGTACACTCC (sugars k3 d10 k3, PS), the target mRNA inhibition worked out at 40%.

Turning to AGATTGCCCCAACACT (sugars k3 d10 k3, PS), the target mRNA inhibition was determined as 38%.

For the sequence GTACCTGAAAAATCTT (sugars k3 d10 k3, PS), the target mRNA inhibition turned out to be 3%.

Take TAACCTATTGACTATA (sugars k3 d10 k3, PS): the target mRNA inhibition was 22%.

Consider AGGGCTTTACTTTCCA (sugars k3 d10 k3, PS), for which the target mRNA inhibition is -5%.

As for TAAGGAGACAGCTTTC (sugars k3 d10 k3, PS), the target mRNA inhibition was 16%.

With CAGCTTCAATCACAAA (sugars k3 d10 k3, PS), the target mRNA inhibition is 33%.

With GGGTTAAGCACTTTTA (sugars k3 d10 k3, PS), the target mRNA inhibition was 57%.

Consider TACAATCAAGTCAAGC (sugars k3 d10 k3, PS), for which the target mRNA inhibition was -2%.

Turning to TATTCCTTTCATAGAG (sugars k3 d10 k3, PS), the target mRNA inhibition stood at 11%.

Regarding GCGGCCCCCCAGTTGC (sugars k3 d10 k3, PS), the target mRNA inhibition was -16%.

For TCTCCAATGGACATCT (sugars k3 d10 k3, PS), the target mRNA inhibition stood at 8%.

For the sequence GAATTCAACTGGAAGC (sugars k3 d10 k3, PS), the target mRNA inhibition amounted to 7%.

Take TTATGCTTATTCCCCA (sugars k3 d10 k3, PS): the target mRNA inhibition was 75% and 85%.

Regarding TGATCTGACTTTGTAT (sugars k3 d10 k3, PS), the target mRNA inhibition is 47%.

Consider AAGCCGCCTGCTACCT (sugars k3 d10 k3, PS), for which the target mRNA inhibition is -16%.

AATCGCACTGGCTCCT (sugars k3 d10 k3, PS): the target mRNA inhibition came out at 25%.

For AACGAAACATTGGCAC (sugars k3 d10 k3, PS), the target mRNA inhibition amounted to 48%.

Turning to GCTCACATGCCAGTTA (sugars k3 d10 k3, PS), the target mRNA inhibition is 32%.

For AATGACGCAATTCTCC (sugars k3 d10 k3, PS), the target mRNA inhibition amounted to 21%.

TGAAAACCCACTCTTG (sugars k3 d10 k3, PS): the target mRNA inhibition was 0%.

For ACTAAGCGAATGGCTT (sugars k3 d10 k3, PS), the target mRNA inhibition was -9%.

In the case of ACAAGGCAAATCGCCA (sugars k3 d10 k3, PS), the target mRNA inhibition stood at 17%.

As to GGTTATGCTTATTCCC (sugars k3 d10 k3, PS), the target mRNA inhibition was 37%.

Regarding CTCCTGACAAATTATA (sugars k3 d10 k3, PS), the target mRNA inhibition is 17%.

In the case of CCCACAAGGATCCAAG (sugars k3 d10 k3, PS), the target mRNA inhibition turned out to be 9%.

On to CCGTCATGTTTTAGAA (sugars k3 d10 k3, PS), for which the target mRNA inhibition is 58% and 61%.

For the sequence ATTACCCCAACTAAAC (sugars k3 d10 k3, PS), the target mRNA inhibition came to 9%.

In the case of GTTACCTTGAAACCGA (sugars k3 d10 k3, PS), the target mRNA inhibition is 47%.

For TCCTGCGACTTGCTCC (sugars k3 d10 k3, PS), the target mRNA inhibition is 15%.
